# Data published in US9884850B2, “Pyrimidine hydroxy amide compounds as HDAC6 selective inhibitors” (Acetylon Pharmaceuticals, Inc., priority 2014, dated 2018).
# “Also recorded” adds a separate entry of the source.
# System: taxol induced neuropathic pain model in rats
# Experiment: Taxol induced neuropathic pain study in rats (Von Frey testing)
# Format: in vivo, rat
# Conditions: taxol treated rats, 1, 3, 10 mg/kg PO b.i.d.
# Method: This study included a histology endpoint in addition to the von Frey testing for paw sensitivity.
# Neuropathic pain is induced by a 0.5 ml/kg injection of Taxol (2 mg/kg) administered IP on days 0-12. The development of neuropathic pain is confirmed by measuring mechanical allodynia (Von Frey test) on study day 13.
# Allodynic response to tactile stimulation is assessed using the Von Frey apparatus (Touch Test®).
# The rat will be placed in an enclosure and positioned on a metal mesh surface, but allowed to move freely. The rats' cabins are covered with red cellophane to diminish environmental disturbances. The test begins after a cessation of exploratory behavior. The set of Von Frey monofilaments provide an approximate logarithmic scale of actual force and a linear scale of perceived intensity.
# The operating principle: when the tip of a fiber of given length and diameter is pressed against the skin at right angles, the force of application increases as long as the researcher continues to advance the probe until the fiber bends. After the fiber bends, the probe continues to advance, causing the fiber to bend more, but without additional force being applied. […] The Touch Test™ Sensory Evaluator can be used on the plantar surfaces of the rat's foot. The animal indicates sensation by pulling back its paw. […]
smiles,measurement,value
O=C(NO)c1cnc(NC2(c3ccccc3)CCC(F)(F)CC2)nc1 [Compound 003],Effect on nociception / tactile allodynia (Von Frey),completely reversed nociception; also recorded: reduced tactile allodynia
